The values below come from patent US20250295109A1, “UNIVERSAL SYNERGIST FOR INSECT ATTRACTANTS” (North Carolina State University, priority 2022, published 2025).

Test [1] deals with male CEW antenna. The test can be described thus: GC-EAD of female sex pheromone gland extract on male CEW antenna. Set-up: species or system Helicoverpa zea. The note with it: compound present in CEW female sex pheromone gland extract. The protocol:
Based on the finding that nonanal attracts male CEW in laboratory and field behavioral studies, and as described hereinbelow, a study of the female sex pheromone gland extract of Helicoverpa zea was performed using a gas chromatography-electroantennograom detector (GC-EAD), a device that couples a GC to an insect antenna, the olefactory organ of insects that serves as a biological detector. In this device, the GC separates chemicals in a mixture and presents them to the antenna, and its electrophysiological responses reveal which chemicals it senses. […]
The sex pheromone glands of multiple CEW females were dissected and the contents extracted with hexane. […] In parallel to the GC, the electrophysiological response of the antenna is recorded to identify the active compounds. […] Gland extracts were also analyzed using gas chromatography-mass spectrometry (GC-MS) (6890 GC and 5975 MS, Agilent Technologies, Palo Alto, California, United States of America) The GC-MS was operated in pulsed splitless mode (15 psi for 0.5 min, then 6 psi) and equipped with a DB-WAXetr column (30 m×0.25 mm, df=0.25 μm, Agilent Technologies, Palo Alto, California, United States of America), and helium was used as the carrier gas at an average velocity of 34 cm/s. […]

Test [2] has as its system male corn earworm (CEW, Helicoverpa zea). The test can be described thus: field trapping of male CEW in Hartstack traps, nonanal and/or 1-hexanol. It is filed as in vivo. From the text: FIG. 11 is a graph showing the results of a field trapping study of male com earworm (CEW, Helicoverpa zea) using traps containing a dispenser containing a solution of 0.5% nonanal and/or 0.5% 1-hexanol alone or also containing a dispenser for a commercial CEW sex pheromone lure. Effectiveness is reported as number of male CEW capture per day per trap.
To determine the effects of 1-hexanol and combinations of 1-hexanol and nonanal, Hartstack traps with or without the commercial CEW sex pheromone lure and with or without one or both of nonanal and 1-hexanol were placed in sorghum or corn fields. Nonanal and 1-hexanol, if present, were present at 0.5% on a weight to weight basis with the major component of the commercial pheromone lure.

Consider `CCCCCCO` [1-hexanol], for which, in test [1], the “EAD response of the antenna” value was “elicit an EAD response in the antenna”. Moreover, the “effectiveness in trapping male CEW, without commercial pheromone lure” value in test [2] (0.5% w/w level, without the commercial pheromone lure, sorghum or corn fields) was “not effective in trapping male CEW”. For the same compound, in test [2] (0.5% w/w with major component of commercial pheromone lure, used in combination with the commercial lure), the “effectiveness of commercial lure in trapping male CEW when combined” value is “improved its effectiveness”.
